Some test systems named below: HOP-92 NSCLC; EKVX NSCLC; LOX IMVI melanoma; SNB-75 CNS; SK-MEL-2 melanoma; NCI-H522 lung; COLO 205 colon; RXF 393 renal; NCI/ADR-RES ovarian; MDA-MB-435.
Assay in all cases: NCI tumour cell line growth inhibition, 48 h

Molecules are shown by their SMILES.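 Briefly, cells in 96-well plates were exposed to five compound concentrations for 48 h, and endpoints were estimated by linear interpolation. GI50: concentration for 50% inhibition of growth. At the TGI there is no net growth.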

Drawing on PubChem BioAssay (NCI), this text covers TGI and GI50 for 16 compounds.

On to `CC(=O)N/N=C1\CC(C)(C)C2CCC1C2` (stereo not given), for which the TGI with HOP-92 NSCLC, in the assay on EKVX NSCLC, in the assay on LOX IMVI melanoma, in the assay on SNB-75 CNS, in the assay on SK-MEL-2 melanoma and in the assay with NCI-H522 lung was above 100 µM each time. Also, the TGI in the assay on COLO 205 colon and in the assay with RXF 393 renal was above 100 µM in each case.
Take `COc1ccc(NC(=O)CC2SC(=Nc3ccccc3C)NC2=O)c([N+](=O)[O-])c1` (stereo not given): the TGI in the assay on HOP-92 NSCLC is above 100 µM; in the assay with LOX IMVI melanoma it was above 100 µM; with SNB-75 CNS it was above 100 µM; in the assay on SK-MEL-2 melanoma, above 100 µM; with NCI-H522 lung it was 80.5 µM; with COLO 205 colon it was above 100 µM.
For the compound `CC1/C=C/[C@@]2(C)CCC(C(C)(C)O)C2C(O)C[C@](C)(O)/C=C/C1` (stereo not given in full), the TGI with HOP-92 NSCLC, in the assay on EKVX NSCLC, in the assay on LOX IMVI melanoma, in the assay on SNB-75 CNS, in the assay on SK-MEL-2 melanoma and in the assay with COLO 205 colon was above 100 µM each time. In addition, the TGI in the assay on RXF 393 renal was above 100 µM.
`O=c1/c(=C/c2ccccc2[N+](=O)[O-])sc2nc3ccccc3n12`: the TGI with HOP-92 NSCLC is above 46.4 µM; with EKVX NSCLC it was above 100 µM; with LOX IMVI melanoma it was 31.9 µM; with SNB-75 CNS, 33.5 µM; in the assay with SK-MEL-2 melanoma it was above 46.4 µM; in the assay with NCI-H522 lung it was above 100 µM. Moreover, the figures for the TGI with COLO 205 colon and in the assay on RXF 393 renal were above 46.4 µM and 41.9 µM, respectively.
`COc1ccc(/C=C/C(=O)/C=C/c2cc3ccccc3[nH]c2=O)cc1`: the GI50 in the assay with SNB-75 CNS is 4.33 µM; in the assay with NCI-H522 lung, 1.97 µM; in the assay with COLO 205 colon it was 3.31 µM; in the assay with RXF 393 renal it was 3.31 µM; in the assay on NCI/ADR-RES ovarian, 20.5 µM; in the assay on MDA-MB-435 it was 2.22 µM. In addition, the TGI in the assay with SNB-75 CNS was 18.7 µM; in the assay with NCI-H522 lung it was 4.67 µM; in the assay with COLO 205 colon, 9.37 µM; with RXF 393 renal it was 11.9 µM; with NCI/ADR-RES ovarian, above 100 µM; with MDA-MB-435, 5.07 µM.
Regarding `Cc1ccc(NC(=O)CCc2nc(N)nc(N)c2-c2ccccc2)cc1C`, the TGI in the assay with HOP-92 NSCLC, with EKVX NSCLC, in the assay with SNB-75 CNS, with SK-MEL-2 melanoma, in the assay with NCI-H522 lung and in the assay with COLO 205 colon was above 100 µM throughout.
Consider `CC1=Nc2c(ccc3c2C(=O)c2ccccc2C3=O)NC(c2cccc3c2CCC3)C1` (stereo not given), for which the TGI with HOP-92 NSCLC, in the assay on EKVX NSCLC, in the assay on LOX IMVI melanoma, in the assay with SNB-75 CNS, in the assay on SK-MEL-2 melanoma and in the assay with NCI-H522 lung was above 100 µM in each case. Also, the TGI with COLO 205 colon and in the assay on RXF 393 renal was above 100 µM throughout.
Turning to `COc1ccc(OC)c(NC(=O)CCC/C(CC(=O)c2ccc(O)c(OC)c2)=N\Nc2nnc(C)n2N)c1`, the TGI in the assay with HOP-92 NSCLC, in the assay on EKVX NSCLC, with LOX IMVI melanoma, with SNB-75 CNS, in the assay with SK-MEL-2 melanoma and in the assay with NCI-H522 lung was above 100 µM throughout. In the assay with COLO 205 colon, this compound yielded a TGI above 100 µM.
For the compound `O=C1CC2C(=O)c3ccccc3CC2c2ccccc21` (stereo not given), the TGI in the assay with HOP-92 NSCLC was above 100 µM; with EKVX NSCLC it was above 100 µM; in the assay with LOX IMVI melanoma, above 100 µM; in the assay on SNB-75 CNS, 75 µM; in the assay on SK-MEL-2 melanoma it was above 100 µM; with NCI-H522 lung, above 100 µM. In the assay with MDA-MB-435, this compound gave a TGI of 55.3 µM.
Turning to `Cc1nn[n-]n1.N.N.N.N.N.[Cl-].[Co+3]`, the GI50 with HOP-92 NSCLC, in the assay with EKVX NSCLC, in the assay with LOX IMVI melanoma, in the assay on SNB-75 CNS, with SK-MEL-2 melanoma and in the assay on COLO 205 colon was above 100 µM in each case. Further, the GI50 in the assay on RXF 393 renal is above 100 µM. For the same compound, the TGI in the assay on HOP-92 NSCLC, with EKVX NSCLC, in the assay with LOX IMVI melanoma, in the assay on SNB-75 CNS, in the assay with SK-MEL-2 melanoma and in the assay on COLO 205 colon was above 100 µM throughout. Also, the TGI with RXF 393 renal is above 100 µM.
Consider `CCC1CC2C(=O)N(c3ccccc3)C(=O)C2c2[nH]c3ccccc3c21` (stereo not given), for which the TGI in the assay on EKVX NSCLC was found to be 95.3 µM; with LOX IMVI melanoma it was 47.8 µM; in the assay with SNB-75 CNS, 13 µM; with COLO 205 colon it was 78.5 µM; with RXF 393 renal it was 59.6 µM.
Regarding `COC12CCC(=O)C=C1c1ccccc1N2C(C)=O` (stereo not given), the TGI in the assay on EKVX NSCLC, in the assay with SNB-75 CNS, with SK-MEL-2 melanoma, in the assay on COLO 205 colon and in the assay with RXF 393 renal was above 100 µM each time.
Turning to `CCCNC(=O)C1C(=O)C(=O)N(CCC)C1=O` (stereo not given), the TGI in the assay with HOP-92 NSCLC, in the assay with EKVX NSCLC, in the assay with LOX IMVI melanoma, in the assay on SNB-75 CNS, in the assay with SK-MEL-2 melanoma and with NCI-H522 lung was above 100 µM throughout. In addition, the TGI in the assay with COLO 205 colon and with RXF 393 renal was above 100 µM in each case.
Regarding `C=C(CC(NC(=O)c1ccc(C(CC)Cc2cnc3nc(N)nc(N)c3n2)cc1)C(=O)O)C(=O)O` (stereo not given), the TGI in the assay with EKVX NSCLC, in the assay with LOX IMVI melanoma, with SNB-75 CNS, with COLO 205 colon and in the assay with RXF 393 renal was above 100 µM each time.
In the case of `O=C(CCC(=O)Nc1ccc(Cl)c(Cl)c1)CC(=O)c1ccc(Br)cc1`, the TGI in the assay on HOP-92 NSCLC, with EKVX NSCLC, with LOX IMVI melanoma, in the assay with SNB-75 CNS, with SK-MEL-2 melanoma and in the assay on NCI-H522 lung was above 100 µM each time. Also, the TGI with COLO 205 colon and in the assay on RXF 393 renal was above 100 µM each time.
For the compound `CCOC(=O)C1=C(Nc2ccc(Cl)cc2Cl)OCC1=O`, the TGI in the assay with HOP-92 NSCLC, in the assay on LOX IMVI melanoma, in the assay with SNB-75 CNS, with SK-MEL-2 melanoma, in the assay on NCI-H522 lung and in the assay on COLO 205 colon was above 100 µM each time.
